The source of these data is patent publication EP4818171A1 (Apeiron Therapeutics (Hong Kong) Ltd., priority 2024, dated 2025).

Read-outs that look alike come from different tables or passages of the source.

Assay [1] relates to HCT-116 wild-type cells. The assay is described as follows: Inhibitory activity on proliferation of HCT-116 wild-type cells (Cell-Titer Glo). Type of assay: cell-based. As to conditions: 8 d incubation.
Description: Cell culture: HCT-116 wild-type cells were cultured with a RPMI-1640 medium containing 10% fetal bovine serum+1% penicillin-streptomycin at 37°C in 5% carbon dioxide. Only cells in the logarithmic growth phase could be used for the test.
Test of cell proliferation activity: Cell-Titer Glo kit was used to test the proliferation inhibitory activity of the compound on HCT-116 wild-type cells. The cell concentration was adjusted, rendering that cells were inoculated into a 384-well plate at 40 µL per well and incubated overnight at 37°C and 5% carbon dioxide. 40 nL of the compound was added to each well to reach a final concentration of 0-10,000 nM (starting concentration 10,000 nM, 2-fold dilution, 10 points), and the cell plate with 0.1% DMSO content was incubated at 37°C and 5% carbon dioxide for 8 d. 40 µL of Cell-Titer Glo reagent was added to test cell viability.
Assay [2] has as its system HCT-116 MTAP(-/-)deleted cells. The assay is described as follows: Inhibitory activity on proliferation of HCT-116 MTAP(-/-)deleted cells (Cell-Titer Glo).
Description: Only cells in the logarithmic growth phase could be used for the test. […] The cell concentration was adjusted, rendering that cells were inoculated into a 384-well plate at 40 µL per well and incubated overnight at 37°C and 5% carbon dioxide. 40 nL of the compound was added to each well to reach a final concentration of 0-10,000 nM (starting concentration 10,000 nM, 3-fold dilution, 10 points), and the cell plate with 0.1% DMSO content was incubated at 37°C and 5% carbon dioxide for 8 d. 40 µL of Cell-Titer Glo reagent was added to test cell viability.
The test system of assay [3] is LU99 MTAP(-/-)deleted cells. The assay can be described thus: Inhibitory activity on proliferation of LU99 MTAP(-/-)deleted cells (Cell-Titer Glo).
Description: Materials and cells: LU99 MTAP deleted cell line was purchased from Kyinno Biotechnology (China); cell culture medium and fetal bovine serum were purchased from Thermo Fisher Scientific (USA); 384-well plates were purchased from PerkinElmer (USA); Cell-Titer Glo kits were purchased from Promega (USA). Cell culture: LU99 MTAP(-/-)deleted cells were cultured with medium containing 10% fetal bovine serum at 37°C in 5% carbon dioxide. Only cells in the logarithmic growth phase could be used for the test.
Test of inhibitory activity on cell proliferation: The Cell-Titer Glo kit was used to test the proliferation inhibitory activity of the compounds on LU99 MTAP(-/-)deleted cells. The cell concentration was adjusted, rendering that cells were inoculated into a 384-well plate at 40 µL per well and incubated overnight at 37°C and 5% carbon dioxide. […] 40 µL of Cell-Titer Glo reagent was added to test cell viability.
Assay [4] relates to LU99 MTAP overexpressing cells. The assay can be described thus: Inhibitory activity on proliferation of LU99 MTAP overexpressing cells (Cell-Titer Glo). Type of assay: cell-based. Particulars: 6 d incubation.
Description: Materials and cells: LU99 MTAP overexpressing cell line was purchased from Kyinno Biotechnology (China); cell culture medium and fetal bovine serum were purchased from Thermo Fisher Scientific (USA); 384-well plates were purchased from PerkinElmer (USA); Cell-Titer Glo kits were purchased from Promega (USA).
Cell culture: LU99 MTAP overexpressing cells were cultured with medium containing 10% fetal bovine serum at 37°C in 5% carbon dioxide. Only cells in the logarithmic growth phase could be used for the test.
Test of inhibitory activity on cell proliferation: The Cell-Titer Glo kit was used to test the proliferation inhibitory activity of the compounds on LU99 MTAP overexpressing cells. The cell concentration was adjusted, rendering that cells were inoculated into a 384-well plate at 40 µL per well and incubated overnight at 37°C and 5% carbon dioxide. 40 nL of the compound was added to each well to reach a final concentration of 0-10,000 nM (starting concentration 10,000 nM, 2.5-fold dilution, 10 points), and the cell plate with 0.2% DMSO content was incubated at 37°C and 5% carbon dioxide for 6 d. 40 µL of Cell-Titer Glo reagent was added to test cell viability.
The mark [5] stands for this setting: read-out: IC50 (nM) Lu99 MTAP(-/-)Deleted, LU99 MTAP(-/-)deleted cells, 6 d incubation, Cell-Titer Glo.
The mark [6] stands for this setting: Homo sapiens, HCT-116, 192 h, read-out: IC50 (nM) HCT-116 MTAP(-/-)deleted.
The mark [7] stands for this setting: Homo sapiens, Lu-99, 144 h, read-out: IC50 (nM) Lu99 MTAP(-/-)Deleted, LU99 MTAP(-/-)deleted cells, 6 d incubation, Cell-Titer Glo.
Where [8] appears, read: Homo sapiens, HCT-116, 192 h, read-out: IC50 (nM) HCT-116 MTAP(-/-)deleted, HCT-116 MTAP(-/-)deleted cells, 8 d incubation, Cell-Titer Glo.

With “4-amino-N-methyl-N-(7'-(trifluoromethyl)spiro[cyclobutane-1,1'-isochroman]-4'-yl)imidazo[1,5-a]quinoxaline-8-carboxamide [Example 1]”, the IC50 in assay [1] was 959 nM; in assay [2] (read-out: IC50 (nM) HCT-116 MTAP(-/-)deleted, HCT-116 MTAP(-/-)deleted cells, 8 d incubation, Cell-Titer Glo) it was 10 nM; in assay [3] (setting [5]), 13.2 nM; in assay [4] it was 652 nM.
In the case of `CN(C(=O)c1ccc2nc(N)c3cncn3c2c1)[C@H]1COC2(CCC2)c2cc(C(F)(F)F)ccc21` (stereo in doubt) [Example 4, (R)-4-amino-N-methyl-N-(7'-(trifluoromethyl)spiro[cyclobutane-1,1'-isochroman]-4'-yl)imidazo[1,5-a]quinoxaline-8-carboxamide], the IC50 in assay [3] (setting [5]) stood at 1100 nM; in assay [4], 742 nM.
For `CN(C(=O)c1ccc2nc(N)c3cncn3c2c1)[C@H]1COC2(CCC2)c2cc(C(F)(F)F)ccc21` [Example 3, (R)-4-amino-N-methyl-N-(7'-(trifluoromethyl)spiro[cyclobutane-1,1'-isochroman]-4'-yl)imidazo[1,5-a]quinoxaline-8-carboxamide], the IC50 in assay [1] (Homo sapiens, HCT-116, 192 h) came out at 636 nM; in assay [2] (setting [6]), 5.1 nM; in assay [3] (setting [5]), 8.3 nM; in assay [4] (Homo sapiens, Lu-99, 144 h) it was 624 nM.
Consider `CN(C(=O)c1ccc2nc(N)c3cncn3c2c1)[C@@H]1COC2(CCC2)c2nc(N3CCOCC3)ccc21` [Example 5, (S)-4-amino-N-methyl-N-(2'-morpholinyl-5',6'-dihydrospiro[cyclobutane-1,8'-pyrano[3,4-b]pyridine]-5'-yl)imidazo[1,5-a]quinoxaline-8-carboxamide], for which the IC50 in assay [3] (setting [7]) was found to be 961 nM; in assay [4] (Homo sapiens, Lu-99, 144 h), 2360 nM.
Take `CN(C(=O)c1ccc2nc(N)c3cncn3c2c1)C1COC2(CCC2)c2cc(C(F)(F)F)ccc21` (stereo not shown) [Example 7, 4-Amino-N-methyl-N-(7'-(trifluoromethyl)spiro[cyclobutane-1,1'-isochroman]-4'-yl)imidazo[1,5-a]quinoxaline-8-carboxamide]: the IC50 in assay [1] (Homo sapiens, HCT-116, 192 h) came out at 636 nM; in assay [2] (setting [6]) it was 5.1 nM; in assay [3] (setting [7]), 8.3 nM; in assay [4] (Homo sapiens, Lu-99, 144 h), 624 nM.
The like results for `CN(C(=O)c1ccc2nc(N)c3cncn3c2c1)C1COC2(CC2)c2cc(C(F)(F)F)ccc21` (stereo not shown) [Example 8, 4-Amino-N-methyl-N-(7'-(trifluoromethyl)spiro[cyclopropane-1,1'-isochroman]-4'-yl)imidazo[1,5-a]quinoxaline-8-carboxamide] were, in that order, 3930 nM, 9 nM, 13.4 nM and 2310 nM.
For `CN(C(=O)c1ccc2nc(N)c3cncn3c2c1)C1COC2(CCCC2)c2cc(C(F)(F)F)ccc21` (stereo not shown) [Example 9, 4-Amino-N-methyl-N-(7'-(trifluoromethyl)spiro[cyclopentane-1,1'-isochroman]-4'-yl)imidazo[1,5-a]quinoxaline-8-carboxamide] the same measures were 2220 nM, 6.5 nM, 10.9 nM and 1980 nM.
For `CN(C(=O)c1ccc2nc(N)c3cncn3c2c1)C1COC2(CCOCC2)c2cc(C(F)(F)F)ccc21` (stereo not shown) [Example 12, 4-Amino-N-methyl-N-(7'-(trifluoromethyl)-2',3',5',6'-tetrahydrospiro[isochroman-1,4'-pyran]-4-yl)imidazo[1,5-a]quinoxaline-8-carboxamide] the same measures were 1730 nM, 7.64 nM, 8.8 nM and 1640 nM.
In the case of `CN(C(=O)c1cc2c(cc1F)nc(N)c1cncn12)C1COC2(CCC2)c2cc(C(F)(F)F)ccc21` (stereo not shown) [Example 13, 4-Amino-7-fluoro-N-methyl-N-(7'-(trifluoromethyl)spiro[cyclobutane-1,1'-isochroman]-4'-yl)imidazo[1,5-a]quinoxaline-8-carboxamide], the IC50 in assay [1] (Homo sapiens, HCT-116, 192 h) came out at 597 nM; in assay [2] (setting [6]), 5.3 nM; in assay [3] (setting [7]) it was 7.8 nM; in assay [4] (Homo sapiens, Lu-99, 144 h), 773 nM.
For the molecule `CN(C(=O)c1cc2c(cc1F)nc(N)c1cncn12)[C@@H]1COC2(CCC2)c2cc(C(F)(F)F)ccc21` [Example 15, (S)-4-amino-7-fluoro-N-methyl-N-(7'-(trifluoromethyl)spiro[cyclobutane-1,1'-isochroman]-4'-yl)imidazo[1,5-a]quinoxaline-8-carboxamide], the IC50 was 7.1 nM in assay [3] (setting [7]) and 425 nM in assay [4] (Homo sapiens, Lu-99, 144 h).
For the molecule `CN(C(=O)c1cc2c(cc1F)nc(N)c1cncn12)C1COC2(CCOCC2)c2cc(C(F)(F)F)ccc21` (stereo not shown) [Example 16, 4-Amino-7-fluoro-N-methyl-N-(7-(trifluoromethyl)-2',3',5',6'-tetrahydrospiro[isochroman-1,4'-pyran]-4-yl)imidazo[1,5-a]quinoxaline-8-carboxamide], the IC50 was found to be 1610 nM in assay [1] (Homo sapiens, HCT-116, 192 h); 5.9 nM in assay [2] (setting [6]); 10.8 nM in assay [3] (setting [7]); 1290 nM in assay [4] (Homo sapiens, Lu-99, 144 h).
The like results for `Cn1cc(N(C(=O)c2ccc3nc(N)c4cncn4c3c2)C2COC3(CCC3)c3cc(C(F)(F)F)ccc32)cn1` (stereo not shown) [Example 17, 4-Amino-N-(1-methyl-1H-pyrazol-4-yl)-N-(7'-(trifluoromethyl)spiro[cyclobutane-1,1'-isochroman]-4'-yl)imidazo[1,5-a]quinoxaline-8-carboxamide] were, in that order, 324 nM, 5.17 nM, 4.5 nM and 104 nM.
`CN(C(=O)c1ccc2nc(N)c3cncn3c2c1)C1COC(C)(C)c2c1ccc1c2OCO1` (stereo not shown) [Example 18]: the IC50 came to 99.6 nM in assay [3] (setting [7]) and 756 nM in assay [4] (Homo sapiens, Lu-99, 144 h).
For the molecule `Cc1ncc2c(N)nc3cc(F)c(C(=O)N(C)C4COC5(CCOCC5)c5cc(C(F)(F)F)ccc54)cc3n12` (stereo not shown) [Example 19, 4-Amino-7-fluoro-N,1-dimethyl-N-(7-(trifluoromethyl)-2',3',5',6'-tetrahydrospiro[isochroman-1,4'-pyran]-4-yl)imidazo[1,5-a]quinoxaline-8-carboxamide], the IC50 is 2710 nM in assay [1] (Homo sapiens, HCT-116, 192 h); 21.7 nM in assay [2] (setting [6]); 31.3 nM in assay [3] (setting [7]); 1390 nM in assay [4] (Homo sapiens, Lu-99, 144 h).
Regarding `Cc1ncn2c1c(N)nc1cc(F)c(C(=O)N(C)C3COC4(CCOCC4)c4cc(C(F)(F)F)ccc43)cc12` (stereo not shown) [Example 20, 4-Amino-7-fluoro-N,3-dimethyl-N-(7-(trifluoromethyl)-2',3',5',6'-tetrahydrospiro[isochroman-1,4'-pyran]-4-yl)imidazo[1,5-a]quinoxaline-8-carboxamide], the IC50 in assay [1] (Homo sapiens, HCT-116, 192 h) was determined as 920 nM; in assay [2] (setting [6]), 9.46 nM; in assay [3] (setting [7]) it was 20.5 nM; in assay [4] (Homo sapiens, Lu-99, 144 h), 1070 nM.
`CN(C(=O)c1ccc2nc(N)c3cncn3c2c1)[C@@H]1COC2(CCC2)c2cc(N3CCNCC3)ncc21` [Example 21, (S)-4-amino-N-methyl-N-(7'-(piperazin-1-yl)-3'-,4'-dihydrospiro[cyclobutane-1,1'-pyrano[4,3-c]pyridine]-4'-yl)imidazo[1,5-a]quinoxaline-8-carboxamide]: the IC50 in assay [1] (Homo sapiens, HCT-116, 192 h) was over 20000 nM; in assay [2] (setting [8]) it was over 1000 nM; in assay [3] (setting [7]), over 1000 nM; in assay [4] (Homo sapiens, Lu-99, 144 h), 12500 nM.
On to `CN(C(=O)c1ccc2nc(N)c3cncn3c2c1)C1COC2(CCC3(CC3)CC2)c2cc(C(F)(F)F)ccc21` (stereo not shown) [Example 23], for which the IC50 turned out to be 4520 nM in assay [1] (Homo sapiens, HCT-116, 192 h); 51.5 nM in assay [2] (setting [6]); 66.1 nM in assay [3] (setting [7]); 3970 nM in assay [4] (Homo sapiens, Lu-99, 144 h).
Take `CN(C(=O)c1ccc2nc(N)c3cncn3c2c1)C1COC2(CCCOC2)c2cc(C(F)(F)F)ccc21` (stereo not shown) [Example 24, 4-Amino-N-methyl-N-(7-(trifluoromethyl)-5',6'-dihydro-2'H,4'H-spiro[isochroman-1,3'-pyran]-4-yl)imidazo[1,5-a]quinoxaline-8-carboxamide]: the IC50 in assay [3] (setting [7]) was found to be 9.54 nM; in assay [4] (Homo sapiens, Lu-99, 144 h), 1470 nM.
On to `CN(C(=O)c1ccc2nc(N)c3cncn3c2c1)C1COC2(CCC2)c2cc(N3CCOCC3)ncc21` (stereo not shown) [Example 28, 4-Amino-N-methyl-N-(7'-morpholinyl-3',4'-dihydrospiro[cyclobutane-1,1'-pyrano[4,3-c]pyridine]-4'-yl)imidazo[1,5-a]quinoxaline-8-carboxamide], for which the IC50 is over 10000 nM in assay [1] (Homo sapiens, HCT-116, 192 h); 110 nM in assay [2] (setting [8]); 88.5 nM in assay [3] (setting [7]); 3880 nM in assay [4] (Homo sapiens, Lu-99, 144 h).
Regarding `CN(C(=O)c1cc2c(cc1F)nc(N)c1cncn12)C1COC2(CCCOC2)c2cc(C(F)(F)F)ccc21` (stereo not shown) [Example 50, 4-Amino-7-fluoro-N-methyl-N-(7-(trifluoromethyl)-5',6'-dihydro-2'H,4'H-spiro[isochroman-1,3'-pyran]-4-yl)imidazo[1,5-a]quinoxaline-8-carboxamide], the IC50 in assay [3] (setting [7]) turned out to be 7.13 nM; in assay [4] (Homo sapiens, Lu-99, 144 h), 591 nM.
The like results for `CN(C(=O)c1ccc2nc(N)c3cncn3c2c1)C1COC(C)(C)c2cc(C(F)(F)F)ncc21` (stereo not shown) [Example 99, 4-Amino-N-(1,1-dimethyl-7-(trifluoromethyl)-3,4-dihydro-1H-pyrano[4,3-c]pyridin-4-yl)-N-methylimidazo[1,5-a]quinoxaline-8-carboxamide] were, in that order, 152 nM and 2970 nM.
